Source: EP0082023A2, “Thienopyrimidine derivatives, their preparation and their medical use” (SANKYO COMPANY LIMITED, priority 1981, dated 1983)

Legend:
[1] = tested on: male mice of the ddY strain; assay: Hypoglycaemic activity in mice after glucose loading; assay type: in vivo; details: Mus musculus, po, 0.5 h; blood sugar concentration vs positive control group; 10 mg/kg orally, 1.2 g/kg D-glucose orally 10 minutes later, blood collected 30 minutes after D-glucose; groups of 6 mice; read-out: Inhibitory rate, R%
Procedure: In this experiment, the hypoglycaemic activity of various of the compounds of the invention was measured in mice after loading a large quantity of glucose. The test animals were male mice of the ddY strain having a body weight of from 25 to 27 g. Each experiment was carried out on a group of 6 mice.
Each test compound was administered orally in an amount of 10 mg/kg to the mouse followed, 10 minutes later, by the oral administration of 1.2 g/kg of D-glucose. 30 minutes after administration of the D-glucose, blood was collected from each mouse and the blood sugar.concentration was measured using a commercially available kit ("New Blood Sugar Test", a product of Boehringer-Mannheim Yamanouchi Pharmaceutical Co. Ltd,). The inhibitory rate, R, was calculated from the following formula: [formula] in which A represents the blood sugar concentration of a positive control group and B represents the blood sugar concentration of the group to which the test compound was administered. As a control, the experiment was also carried out with: the known hypoglycaemic agent, tolbutamide; 2-(2-aminoethylamino)-4-morpholinothieno[2,3-d]pyrimidine (named "VK-744"), a compound disclosed in German Offenlegungsschrift No. 2,200,764; and 4-isopropylamino-2-piperidinothieno[2,3-d]-pyrimidine (hereinafter referred to as "ICI-154"), a compound disclosed in U.S. Patent Specification No. 4,146,716.

platelet aggregation = assay: Inhibition of collagen-induced platelet aggregation in platelet-rich plasma; assay type: cell-based; details: rabbit PRP, incubated 2 minutes, collagen 5 ug/ml
Procedure: The ability of various compounds of the present invention to inhibit platelet aggregation was measured using rabbit blood.
9 volumes of blood collected from male rabbit hearts and 1 volume of a 3.8% w/v aqueous solution of sodium citrate were mixed, placed in a centrifugal separator and subjected to centrifugation under 150 G for 15 minutes to give a platelet-rich-plasma (PRP). 250 pl of this PRP were placed in a cuvette and incubated for 2 minutes with a test compound at the concentration shown in Table 2. To the mixture was then added a collagen solution to a final concentration of 5 ug/ml, to induce aggregation. The aggregation was measured using an aggregometer produced by Rikadenki Co. Ltd. The inhibitory rate R' was calculated from the following formula: [formula] in which A' represents the maximum aggregation rate when only a solvent was added and B' represents the maximum aggregation rate when the test compound was added.
For comparison, the experiment was also carried out using as the test compound VK-744, of German Offenlegungsschrift No. 2,200,764, and ICI-154 of U.S. Patent Specification No. 4,146,716.

[2] = tested on: male mice of the ddY strain; assay: Diuretic activity in mice (urine volume and sodium ion concentration); assay type: in vivo; details: urine collected for 2 hours after administration, increase over control group
Procedure: The animals employed in this test were male mice of the ddY strain, each having a body weight of from 26 g to 30 g. The mice were employed in groups of five for each test. Each test compound was suspended in a 0.3% carboxymethylcellulose saline solution and administered orally in the dose shown in Table 3 to the mouse. For the period of 2 hours after administration, the urine was collected and the urine volume and concentration of sodium ions were measured. […] The compounds tested were Compound No. 3 of the present invention and hydrochlorothiazide (abbreviated as "HCT").

| Structure (SMILES) | inhibition in vivo at 10 mg/kg [1] [%] | other results |
| --- | --- | --- |
| Cc1csc2nc(N3CCNCC3)nc(N)c12 [Compound No. 3, 4-Amino-5-methyl-2-(1-piperazinyl)thieno[2,3-d]-pyrimidine] | 32.4 | Inhibitory rate, R'% (platelet aggregation; concentration 10^-5 g/ml): 82.4%; Percent increase in Na^+ conc. ([2]; dose 100 mg/kg orally): +51%; Percent increase in Urine volume ([2]; dose 100 mg/kg orally): +76% |
| CCc1cc2c(N)nc(N3CCNCC3)nc2s1 [Compound No. 8, 4-Amino-6-ethyl-2-(1-piperazinyl)thieno[2,3-d]-pyrimidine] | 34 |  |
| CNc1nc(N2CCNCC2)nc2scc(C)c12 [Compound No. 16, 5-Methyl-4-methylamino-2-(1-piperazinyl)thieno[2,3-d]-pyrimidine] | 43.9 |  |
| CCc1cc2c(NC)nc(N3CCNCC3)nc2s1 [Compound No. 21, 6-Ethyl-4-methylamino-2-(1-piperazinyl)thieno[2,3-d]-pyrimidine] | 20 |  |
| CCc1cc2c(N(CC)CC)nc(N3CCNCC3)nc2s1 [Compound No. 39, 4-Diethylamino-6-ethyl-2-(1-piperazinyl)thieno[2,3-d]-pyrimidine] | 19.4 |  |
| CCc1cc2c(NCCO)nc(N3CCNCC3)nc2s1 [Compound No. 54, 6-Ethyl-4-(2-hydroxyethylamino)-2-(1-piperazinyl)-thieno[2,3-d]pyrimidine] |  | Inhibitory rate, R'% (platelet aggregation; concentration 10^-6 g/ml): 66.1% |
| CCc1cc2c(NCCN)nc(N3CCNCC3)nc2s1 [Compound No. 66, 4-(2-Aminoethylamino)-6-ethyl-2-(1-piperazinyl)-thieno[2,3-d]pyrimidine] | 32.9 | Inhibitory rate, R'% (platelet aggregation; concentration 3 x 10^-5 g/ml): 100% |
| CCc1cc2c(N)nc(N3CCN(C)CC3)nc2s1 [Compound No. 73, 4-Amino-6-ethyl-2-(4-methyl-1-piperazinyl)thieno-[2,3-d]pyrimidine] | 34.1 | Inhibitory rate, R'% (platelet aggregation; concentration 3 x 10^-5 g/ml): 100% |
| CCc1cc2c(N)nc(N3CCN(C=O)CC3)nc2s1 [Compound No. 84, 4-Amino-6-ethyl-2-(4-formyl-1-piperazinyl)thieno-[2,3-d]pyrimidine] | 39.3 |  |
| CCc1cc2c(NC)nc(N3CCN(C=O)CC3)nc2s1 [Compound No. 99, 6-Ethyl-2-(4-formyl-1-piperazinyl)-4-methylaminothieno-[2,3-d]pyrimidine] | 22.1 |  |
| OCCN(CCO)c1nc(N2CCNCC2)nc2sc3c(c12)CCCC3 [Compound No. 197, 4-Bis(2-hydroxyethyl)amino-2-(1-piperazinyl)-5,6-tetramethylenethieno[2,3-d]pyrimidine] |  | Inhibitory rate, R'% (platelet aggregation; concentration 10^-5 g/ml): 87% |
| NS(=O)(=O)c1cc2c(cc1Cl)NCNS2(=O)=O [HCT, hydrochlorothiazide, reference compound] |  | Percent increase in Na^+ conc. ([2]; dose 30 mg/kg orally): +93%; Percent increase in Urine volume ([2]; dose 30 mg/kg orally): +43% |
| CC(C)Nc1nc(N2CCCCC2)nc2sccc12 [ICI-154, 4-isopropylamino-2-piperidinothieno[2,3-d]-pyrimidine, reference compound] | 11 | Inhibitory rate, R'% (platelet aggregation; concentration 10^-4 g/ml): < 50% |
| NCCNc1nc(N2CCOCC2)c2ccsc2n1 [VK-744, 2-(2-aminoethylamino)-4-morpholinothieno[2,3-d]pyrimidine, reference compound] | 19 |  |
| CNc1nc(N2CCNCC2)nc2sccc12 [compound 49, 4-Methylamino-2-(1-piperazinyl)thieno[2,3-d]pyrimidine] | 32 |  |
| CCc1cc2c(N(CCO)CCO)nc(N3CCNCC3)nc2s1 [compound 62, 4-Bis(2-hydroxyethyl)amino-6-ethyl-2-(1-piperazinyl)-thieno[2,3-d]pyrimidine] |  | Inhibitory rate, R'% (platelet aggregation; concentration 10^-6 g/ml): 65.3% |
| CCCCNC(=O)NS(=O)(=O)c1ccc(C)cc1 [tolbutamide, reference compound] | 2.8 |  |
